Results published in US7612250B2, “Nuclear transfer embryo formation method” (Trustees of Tufts College, priority 2002, dated 2009).

Assays:
[1] = test system: goat oocytes
Method: This study was designed to characterize the kinetics and progressive phenotypes observed during induced enucleation (IE) of activated mouse and goat oocytes. In vivo ovulated mouse oocytes (B6D2F1, n-959; CF 1, n=999) and in vitro matured goat oocytes (n-163) were denuded activated (7% ethanol) and incubated for up to 3.5 hr in KSOM. […] At selected time points oocytes (n=11.50) were fixed/extracted and processed for immunofluorescence microscopy to document activation and meiotic progression based on spindle (microtubules), chromatin (H33258) and polar body (PB. microfilaments) phenotypes.

[2] = test system: bovine oocytes; assay: Induced enucleation (IE) of activated bovine oocytes by demecolcine; type: cell-based
[3] = test system: bovine oocytes / NT embryos; assay: In vitro development (7 days) of bovine NT embryos / parthenotes prepared with demecolcine; type: cell-based; conditions: for cleavage rate / morula/blastocyst rate: 7 days culture
Method: Progress has continued with experiments designed to compare in vitro development of control embryos (parthenotes) with that of reconstructed NT embryos prepared by conventional NT, telophase NT, IE and a novel simultaneous IE-NT paradigm (SIE/NT; see Table 1 below). As in all previous experiments, abattoir-sourced oocytes were obtained having been submitted to 26 h of maturation in ACM medi a @5%CO2 in air. Oocytes were denuded (enzyme/vortex) and activated (5 μM ionomyciin for 5 min, +/−CHX). See Example 2 for detail on methods. […] In the case of SIE/NT, donor karyoplasts (fibroblasts) were injected immediately prior to or immediately after activation. In vitro embryo development was evaluated over a period of 7 days.

[4] = test system: B6D2F1 and CF-1 mouse oocytes
Method: (§1) Hybrid B6D2F1 (C57BL/6×DBA/2) and outbred CF-1 female mice, 8-12 weeks of age, were used as oocyte donors. […] Females were induced to superovulate by intraperitoneal injection of 5 1U of pregnant mare serum gonadotropin (PMSG, Calbiochem) followed 48 h later by 5 1U of human chorionic gonadotropin (hCG, Calbiochem). MII oocytes were collected from oviducts 16-17 h after hCG administration in Hepes-buffered KSOM (H-KSOM, Specialty Media). Cumulus cells were dispersed by incubation in 150 units/ml of bovine testicular hyaluronidase (Sigma) in H-KSOM at 37° C. for 5 min. Cumulus-free oocytes were then washed three times in fresh H-KSOM and immediately activated.
(§2) Oocytes were parthenogenetically activated by a 5-min exposure to freshly prepared 7% (v/v) ethanol in H-KSOM at 37° C. and then washed twice in H-KSOM. Removal of oocytes from ethanol was considered as time zero post-activation (p.a.). To monitor meiotic progression, activated control oocytes (EtOH groups) were cultured for up to 2 h and 15 min and fixed at 30 min intervals, starting 45 min p.a. Culture of activated oocytes was at 37° C. under 5% COZ in air in KSOM medium containing 1 mg/ml BSA and amino acids (16; Specialty Media).
(§3) Fixed oocytes were stored until processing at 4 C. in a PBS blocking solution containing 1% BSA, 0.2% powdered milk, 2% normal goat serum, 0.1 M glycine, 0.2% sodium azide and 0.01% Triton X-100.
(§4) A triple labeling protocol was used for the detection of microtubules, microfilaments and chromatin by fluorescence microscopy. […]
(§5) Labeled oocytes were examined using a Zeiss IM-35 inverted epi-fluorescence microscope fitted with filters selective for Hoechst, fluorescene and Texas Red and a 50 W mercury lamp. […]
(§6) Data were analyzed by x^2 test or Fisher's exact test. […]

[5] = test system: B6D2F1 and CF-1 mouse oocytes; remark: listed apart in the source
Method: as §1, §2, §3
A triple labeling protocol was used for the detection of microtubules, microfilaments and chromatin by fluorescence microscopy. Oocytes were first incubated for 1 h at 37° C. in a mixture of mouse monoclonal anti a-tubulin and anti (3-tubulin antibodies (Sigma) at a 1:1000 final dilution. After several washes in 0.1% polyvinylpyrrolidone (PVP)/PBS at room temperature, oocytes were incubated at 37° C. in PBS blocking solution for 30 min and then in a 1:150 dilution of a donkey antimouse fluorescein-conjugated IgG (Jackson ImmunoResearch) for 45 min at 37° C. Oocytes were washed again several times in 0.1% PVP/PBS and incubated at 37° C. for 30 min in 10 units/ml of Texas Red-conjugated phalloidin (Molecular Probes) to stain actin filaments. Finally, after extensive washing in 0.1% PVP/PBS, oocytes were incubated at room temperature for 15 min in 10 μLg/ml Hoechst 33258 (Molecular Probes) and mounted in 50% glycerol/PBS containing 25 mg/ml sodium azide.
Labeled oocytes were examined using a Zeiss IM-35 inverted epi-fluorescence microscope fitted with filters selective for Hoechst, fluorescene and Texas Red and a 50 W mercury lamp. Selected images were acquired using a Photometrics Cool Snap CCD camera (Roper Scientific Inc., Trenton, N.J.) running on Metamorph software (version 5.0, Universal Imaging Corp., Downington, Pa.).
Data were analyzed by x^2 test or Fisher's exact test. A probability value of P<0.05 was considered to be statistically significant.
In vivo ovulated mouse oocytes (B6D2F1, n-959; CF 1, n=999) and in vitro matured goat oocytes (n-163) were denuded activated (7% ethanol) and incubated for up to 3.5 hr in KSOM.

[6] = test system: B6D2F1 and CF-1 mouse oocytes; assay: Complete second polar body extrusion in ethanol-activated mouse oocytes treated with demecolcine; type: cell-based; conditions: demecolcine for only 15, 30 or 45 min, compared with continuous exposure; preliminary, unpublished
Method: as §1
Oocytes were parthenogenetically activated by a 5-min exposure to freshly prepared 7% (v/v) ethanol in H-KSOM at 37° C. and then washed twice in H-KSOM. Removal of oocytes from ethanol was considered as time zero post-activation (p.a.). […]
as §4, §5, §6

[7] = IE group: fibroblast nuclei injected into IE cytoplasts 1.5-3 hpa
[8] = Induced Enucleation (IE): demecolcine 0.4 μg/ml 1.5-5 h p.a., nuclei injected 1.5-3 h p.a.
[9] = Simultaneous IE-NT (SIE/NT): karyoplasts injected immediately prior to or after activation
[10] = parthenogenetically activated and DM treated oocytes (control group)

With `CN[C@H]1CCc2cc(OC)c(OC)c(OC)c2-c2ccc(OC)c(=O)cc21` [demecolcine] the “time required for induced enucleation” value [1] was “about 5 hours”, the induced enucleation rate ([1]; 5 hours) was “greater than 80%” and the “maximum rate of IE” value ([2]; DM 0.4 μg/ml between 1.5 and 5hpa, at 5hpa) was 91%. For the same molecule, the IE rates ([2]; DM 0.4 μg/ml, varied onset and duration, at 5hpa) was 60-91%, the induced enucleation rate ([2]; bovine oocytes, about 5 hours post-activation) was “greater than 80%” and the “time required for induced enucleation” value ([2]; bovine oocytes, post-activation) was “about 5 hours”. For the same molecule, the cleavage rate [3, 7] was 48%, the morula/blastocyst rate [3, 7] was 27% and the Blastocyst [3, 8] was 16%. For the same molecule, the Cleavage [3, 8] was 49%, the Fragmented [3, 8] was 20% and the Morula [3, 8] was 17%. It also gave a Blastocyst [3, 9] of 25%, a Cleavage [3, 9] of 54% and a Fragmented [3, 9] of 18%. For the same molecule, the cleavage rate [3, 10] was 49%, the morula/blastocyst rate [3, 10] was 30% and the “oocytes showing complete spindle rotation” value ([4]; CF-1 and B6D2F1 treated oocytes, all treatments, 135 min p.a.) was 0-9.6%. The “oocytes in which spindle rotation is completed” value ([4]; demecolcine treated oocytes, both strains) was “less than 10%”, the “time after onset of treatment at which effect on the meiotic spindle was evident” value ([4]; smaller spindles, lower MT density than untreated activated oocytes) was 15 min and the “enucleation rates of oocytes that completed second PB extrusion” value ([5]; CF-1, four treatments (onset 0-15 min p.a.), all time-points combined) was ~80%. The “rates of oocyte enucleation after short exposure” value ([5]; demecolcine for only 15, 30 or 45 min, compared with continuous exposure, preliminary, unpublished) was “reduced”, the “maximum IE rates” value ([5]; mouse oocytes exposed to demecolcine immediately after activation, strain-dependent) was 23-100% and the “time required for induced enucleation” value ([5]; murine oocytes) was “about 1.5 hours”. For the same molecule, the induced enucleation rate ([5]; murine oocytes, about 1.5 hours) was “greater than 50%” and the “rates of second PB extrusion after short exposure” value [6] was “slightly higher”.
